# Experimental data from PubChem BioAssay (NCI).
#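 Protocol summary: plate cells (96-well), add compound at 5 concentrations, incubate 48 h, interpolate endpoints linearly. GI50: concentration for 50% inhibition of growth. At the TGI there is no net growth.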 Where a SMILES comes first, the peptide text is derived from it. The star is where a group is joined. Cbz = O=C(OCc1ccccc1)*; Boc = CC(C)(C)OC(=O)*; OBn = c1ccc(CO*)cc1
# Experiments:
# Experiment in all cases: NCI-60 cell line screen, 48 h
# MOLT-4 leukemia = system: MOLT-4 leukemia
# UO-31 renal = system: UO-31 renal
# OVCAR-4 ovarian = system: OVCAR-4 ovarian
# OVCAR-3 ovarian = system: OVCAR-3 ovarian
# SK-MEL-5 melanoma = system: SK-MEL-5 melanoma
# UACC-257 melanoma = system: UACC-257 melanoma
# SNB-19 CNS = system: SNB-19 CNS
# CAKI-1 renal = system: CAKI-1 renal
# A498 renal = system: A498 renal
# NCI-H23 lung = system: NCI-H23 lung
Compound,TGI (MOLT-4 leukemia) [µM],TGI (UO-31 renal) [µM],TGI (OVCAR-4 ovarian) [µM],TGI (OVCAR-3 ovarian) [µM],TGI (SK-MEL-5 melanoma) [µM],TGI (UACC-257 melanoma) [µM],TGI (SNB-19 CNS) [µM],TGI (CAKI-1 renal) [µM],TGI (A498 renal) [µM],TGI (NCI-H23 lung) [µM],GI50 (UO-31 renal) [µM],GI50 (OVCAR-4 ovarian) [µM],GI50 (OVCAR-3 ovarian) [µM],GI50 (SK-MEL-5 melanoma) [µM],GI50 (UACC-257 melanoma) [µM],GI50 (SNB-19 CNS) [µM],GI50 (CAKI-1 renal) [µM],GI50 (A498 renal) [µM],GI50 (NCI-H23 lung) [µM]
Cc1cc2c(cc1-c1cc3c(cc1C)C(C(C)C)=C(O)C(=O)/C3=C\Nc1cccc3c(N)cccc13)/C(=C/Nc1cccc3c(N)cccc13)C(=O)C(O)=C2C(C)C,> 100,> 100,> 100,> 100,> 100,> 100,> 100,> 100,> 100,> 100,,,,,,,,,
C/C(O)=C/c1nc2sc(C)c(C)c2c(=O)s1,,> 100,> 100,> 100,> 100,> 100,> 100,> 100,> 100,> 100,,,,,,,,,
CN(Cc1cnc2nc(N)nc(N)c2n1)c1ccc(C(=O)NC2CCCCC2)cc1,> 100,> 100,,> 100,38.1,> 100,38.7,> 100,77.3,> 100,,,,,,,,,
CC(C)c1cccc(C(C)C)c1NC(=S)Nc1ccccc1,> 100,> 100,> 100,> 100,> 100,> 100,> 100,,> 100,> 100,,,,,,,,,
CSc1ccc(C=C2N=C(c3ccccc3)N(c3cc(C(=O)c4ccccc4)ccc3N3C(=O)/C(=C/c4ccc(SC)cc4)N=C3c3ccccc3)C2=O)cc1,> 100,> 100,> 100,55.1,> 100,> 100,> 100,> 100,> 100,,,,,,,,,,
COC(=O)C(CCCCNC(=O)OCc1ccccc1)NC(=O)C(CCC(=O)OCc1ccccc1)NC(=O)OC(C)(C)C (configuration not stated) (Boc-Glu(OBn)-Lys(Cbz)-OMe; configuration not given here),> 100,> 100,> 100,> 100,> 100,,> 100,> 100,66.5,> 100,,,,,,,,,
Cc1ccc(NC(=O)c2cc(S(=O)(=O)N3CCNNC3=O)c(S)cc2Cl)cc1,> 100,> 100,> 100,> 100,> 100,> 100,> 100,> 100,,,,,,,,,,,
COC(=O)[C@@H](COC(=O)/C=C/c1ccc(OC(C)=O)c(OC(C)=O)c1)NC(=O)/C=C/c1ccc(OC(C)=O)c(OC(C)=O)c1,> 100,,57.8,50,30,> 100,> 100,48.1,> 100,> 100,,,,,,,,,
CC(=O)Nc1ccccc1S(=O)(=O)c1c(-c2c(C)c(Cl)c(C)c(Cl)c2C)noc1C,> 100,> 100,35.6,> 100,> 100,> 100,64.5,79.3,> 100,> 100,,,,,,,,,
CC1(C)O[C@@H]([C@@H](O)[C@H](O)C2SCCCS2)[C@@H](CO)O1,> 100,> 100,,> 100,> 100,> 100,> 100,> 100,> 100,> 100,,,,,,,,,
COc1ccc(-n2c(-c3ccccc3)cc(-c3cccs3)c2-c2cccs2)cc1,> 100,> 100,> 100,> 100,> 100,> 100,,> 100,> 100,95.7,,,,,,,,,
N=C(N)c1ccc(-c2ccc(-c3ccccc3)o2)cc1,,3.53,4.9,13.4,3.72,4.56,6.83,9.85,9.46,14.8,1.79,1.96,3.3,1.94,2.21,2.54,2.78,2.85,3.37
OCC1OC(NC(=S)NCSCCC(F)(F)C(F)(F)C(F)(F)C(F)(F)C(F)(F)C(F)(F)F)C(O)C(O)C1O (configuration not stated),> 100,> 100,> 100,> 100,,> 100,> 100,> 100,12.6,> 100,,,,,,,,,
COC1(CCO)CC=CCC1(CCO)OC (configuration not stated),> 100,> 100,> 100,> 100,> 100,> 100,> 100,> 100,,,,,,,,,,,
CCOC(=O)CC(=O)Nc1c(C(=O)OCC)sc2nc(SC)nc(Nc3ccc(OC)c(OC)c3)c12,,> 100,> 100,40.1,> 100,> 100,,> 100,82.4,> 100,,,,,,,,,
CSc1nc2ccccc2c(=O)n1-c1cccc(C)c1,98.2,,> 100,> 100,66.2,> 100,> 100,> 100,92,> 100,,,,,,,,,
NC(=S)NS(=O)(=O)c1ccc(F)cc1,> 100,,> 100,> 100,> 100,> 100,> 100,> 100,,> 100,,,,,,,,,
CSc1nc(NC2OC(CO)C(O)C(O)C2O)c(N)c(=O)n1C (configuration not stated),> 100,> 100,> 100,> 100,> 100,> 100,> 100,,> 100,> 100,,,,,,,,,
CCCCCCCCCCCCCCCc1ccc(C(=O)C[n+]2ccccc2)cc1,,,,3.64,3.93,3.51,,3.45,8.33,1.79,,,1.79,1.44,1.7,,1.01,1.1,0.502
CN(C)c1ccc(C=Nc2ccc(-c3nc4ccccc4o3)cc2)cc1,78.8,> 100,> 100,51.4,29.8,72.5,> 100,,> 100,> 100,,,,,,,,,
O=C1c2cc([N+](=O)[O-])cnc2S(=O)(=O)N1c1ccc(Oc2ccccc2)cc1,> 100,> 100,> 100,> 100,,,> 100,,,> 100,,,,,,,,,
CSC(=S)Nc1cc(C)ccn1,> 100,> 100,> 100,> 100,46.5,> 100,> 100,> 100,,> 100,,,,,,,,,

Compound,TGI (MOLT-4 leukemia) [µM],TGI (UO-31 renal) [µM],TGI (OVCAR-4 ovarian) [µM],TGI (OVCAR-3 ovarian) [µM],TGI (SK-MEL-5 melanoma) [µM],TGI (UACC-257 melanoma) [µM],TGI (SNB-19 CNS) [µM],TGI (CAKI-1 renal) [µM],TGI (A498 renal) [µM],TGI (NCI-H23 lung) [µM],GI50 (UO-31 renal) [µM],GI50 (OVCAR-4 ovarian) [µM],GI50 (OVCAR-3 ovarian) [µM],GI50 (SK-MEL-5 melanoma) [µM],GI50 (UACC-257 melanoma) [µM],GI50 (SNB-19 CNS) [µM],GI50 (CAKI-1 renal) [µM],GI50 (A498 renal) [µM],GI50 (NCI-H23 lung) [µM]
CCOP(=O)(OCC)OC1CC(n2cnc3c(N(CC)CC)ncnc32)OC1CO[Si](C)(C)C(C)(C)C (configuration not stated),30.7,35.4,29.5,44.9,31.4,32.4,33.7,31.5,,37.2,,,,,,,,,
COc1ccc2[nH]c3c(c2c1)CCc1ccccc1-3,> 100,> 100,> 100,> 100,> 100,> 100,> 100,> 100,,> 100,,,,,,,,,
CCC/C(Cl)=N/OC(=O)Nc1cccc(F)c1,5.55,23.3,25.4,6.6,20.4,28,32.3,7.77,,38.2,,,,,,,,,
N/C(=N/O)c1cn(C2OC(CO)C(O)C2O)c2ncnc(NO)c12 (configuration not stated),0.395,,5.98,,0.892,4.4,> 100,,3.01,2.29,,,,,,,,,
N=C1SCCS1,> 100,> 100,> 100,> 100,> 100,> 100,> 100,> 100,,> 100,,,,,,,,,
ClCc1nc2cc(Cl)ccc2o1,> 100,2.54,3.45,4.07,25.8,22.8,21.5,3.24,,24.6,,,,,,,,,
c1ccc2c(-c3ccnc(-c4c[nH]c5ccccc45)n3)c[nH]c2c1,5.84,> 100,> 100,> 100,15,> 100,> 100,74.6,5.33,,,,,,,,,,
c1ccc(NC2(c3nnnn3C3CCCCC3)CCNCC2)cc1,43.5,27.7,> 100,,34.6,30.6,42.5,,51,52.4,,,,,,,,,
COc1cc([C@@H]2c3cc4c(cc3[C@@H](N=Cc3ccc(C(=O)O[C@H]5C[C@H]6OC[C@@]6(OC(C)=O)[C@H]6[C@H](OC(=O)c7ccccc7)[C@]7(O)C[C@H](OC(=O)[C@H](OC(=O)c8ccc(C=N[C@@H]9c%10cc%11c(cc%10[C@@H](c%10cc(OC)c(O)c(OC)c%10)[C@H]%10C(=O)OC[C@@H]%109)OCO%11)cc8)[C@@H](NC(=O)c8ccccc8)c8ccccc8)C(C)=C([C@@H](OC(C)=O)C(=O)[C@]56C)C7(C)C)cc3)C3COC(=O)C32)OCO4)cc(C)c1O (some centres not stated),> 50,,> 50,> 31.9,> 50,> 50,> 50,> 50,29.2,> 50,,,,,,,,,
CNC1=C(C)C(=O)C2=C(C1=O)C(COC(N)=O)C1(OC)C3NC3CN21 (configuration not stated),> 100,7.4,25.7,21.6,0.268,3.64,,2.78,2.35,,,,,,,,,,
Nc1cccc2cc(S(=O)(=O)Nc3ccc(C(=O)O)cc3)ccc12,,> 100,> 100,> 100,> 100,> 100,> 100,> 100,> 100,> 100,,,,,,,,,
COc1ccc2c(c1)OCC1Cc3cccc(OC)c3OC21 (configuration not stated),80.7,> 100,,> 100,35.7,> 100,,> 100,> 100,> 100,,,,,,,,,
Cc1oc2nc(N(C)C)n3c(C)nnc3c2c1C,> 100,> 100,> 100,,> 100,> 100,> 100,> 100,> 100,> 100,,,,,,,,,
CC1(c2nc3ccccc3[nH]2)CCC(CO)C(C)(C)O1 (configuration not stated),> 100,> 100,> 100,> 100,> 100,> 100,> 100,> 100,,> 100,,,,,,,,,
O=C(N/N=C1\CCc2ccccc21)N/N=C1\CCc2ccccc21,> 100,> 100,,> 100,> 100,> 100,> 100,> 100,> 100,> 100,,,,,,,,,
COc1cc(/C=C2\N=C(c3ccccc3)N(/N=C/c3cc4cc(C)ccc4nc3Cl)C2=O)ccc1O,47.8,> 100,> 100,> 100,> 100,> 100,> 100,> 100,55.3,,,,,,,,,,
O=C(O)C1CCCCN1CCc1c[nH]c2ccccc12 (configuration not stated),> 100,,> 100,> 100,,> 100,> 100,> 100,,> 100,,,,,,,,,
Cc1ccc(CCCC(=O)O)cc1C,> 100,> 100,> 100,> 100,> 100,> 100,> 100,> 100,,> 100,,,,,,,,,
O=C(O)c1ccccc1/C=C1\Cc2ccc3c(c2C1=O)CCCC3,58.6,> 100,> 100,> 100,37,68.4,> 100,,89,75.4,,,,,,,,,
CC1=NN(c2ccccc2Cl)C2(C1)SCC(=O)N2c1nc2ccccc2s1 (configuration not stated),,> 100,> 100,> 100,> 100,> 100,> 100,> 100,> 100,> 100,,,,,,,,,
COC(=O)[C@H]1[C@H](OC(=O)[C@@H](OC)c2ccccc2)ON2CC[C@@H](OC(=O)c3ccccc3)[C@H]12,> 100,> 100,> 100,,> 100,> 100,> 100,> 100,23.1,> 100,,,,,,,,,
